Measurements as given in PubChem BioAssay AID1195 (EPA DSSTox, 2008).
Starred links: 1 amine or outer side, 2 acyl side, 3 side chain; linkers in the order of their positions; H or OH if unused. Positions of bridges follow the written chain, without caps; N, C: chain ends. Non-standard residues stand in square brackets, D forms with d. Residues, ends and D or L forms follow the SMILES beside them. Chains are numbered I, II in the order given. Actinocin(9to1) = Cc1c2oc3c(C)ccc(C(=O)[*:1])c3nc-2c(C(=O)[*:2])c(N)c1=O; NMeV = CN[C@H](C(=O)O)C(C)C; Sar = CNCC(=O)O

Test system: human maximum recommended daily dose, FDA database
Assay: DSSTox (FDAMDD) FDA Maximum (Recommended) Daily Dose Database
Settings: stronger effect = lower value
Method in brief: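 MRDD values come from clinical trials with daily oral dosing, usually for 3–12 months, for the average adult, in mg/day converted to mg/kg-bw/day assuming 60 kg. Antineoplastic mg/m2 doses are divided by 37. Activity score maps log10(1/MRDD mmol) onto 1–100.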

[1] = TherapeuticCategory: antibacterial
[2] = TherapeuticCategory: antidepressant
[3] = TherapeuticCategory: antiarrhythmic

**Q.** Which maximum recommended daily dose (mmol/kg-bw/day) (TherapeuticCategory: anticholinergic) does the source give for C[N+]1([O-])[C@@H]2CC[C@H]1CC(OC(=O)C(CO)c1ccccc1)C2 (stereo not given in full) here?
**A.** The maximum recommended daily dose (mmol/kg-bw/day) was 0.000164.

**Q.** For Cc1c2oc3c(C)ccc(C(=O)N[C@@H]4C(=O)N[C@H](C(C)C)C(=O)N5CCC[C@H]5C(=O)N(C)CC(=O)N(C)[C@@H](C(C)C)C(=O)O[C@@H]4C)c3nc-2c(C(=O)N[C@@H]2C(=O)N[C@H](C(C)C)C(=O)N3CCC[C@H]3C(=O)N(C)CC(=O)N(C)[C@@H](C(C)C)C(=O)O[C@@H]2C)c(N)c1=O (I: T[dV]P[Sar][NMeV] / II: T[dV]P[Sar][NMeV]; ester I:1-I:C, II:1-II:C; linker I:N-II:N via Actinocin(9to1)), which maximum recommended daily dose (mmol/kg-bw/day) (TherapeuticCategory: antineoplastic) is on record?
**A.** Its maximum recommended daily dose (mmol/kg-bw/day) is 1.19e-05.

**Q.** C#C[C@]1(O)CC[C@H]2[C@@H]3CCC4=CCCC[C@@H]4[C@H]3C(=C)C[C@@]21CC was tested. Which maximum recommended daily dose (mmol/kg-bw/day) (TherapeuticCategory: progestogen) did it give?
**A.** Its maximum recommended daily dose (mmol/kg-bw/day) is 8.05e-06.

**Q.** How did the maximum recommended daily dose (mmol/kg-bw/day) [1] turn out when Cc1nnc(NS(=O)(=O)c2ccc(N)cc2)s1 was run?
**A.** Its maximum recommended daily dose (mmol/kg-bw/day) is 0.247.

**Q.** With COc1ccc(C(CN(C)C)C2(O)CCCCC2)cc1 (stereo not given) as the compound, how does the maximum recommended daily dose (mmol/kg-bw/day) [2] read?
**A.** Its maximum recommended daily dose (mmol/kg-bw/day) is 0.0225.

**Q.** With CC(CCc1ccc(O)cc1)NCCc1ccc(O)c(O)c1 (stereo not given) as the compound, how does the maximum recommended daily dose (mmol/kg-bw/day) (TherapeuticCategory: cardiotonic) read?
**A.** The maximum recommended daily dose (mmol/kg-bw/day) was 0.000133.

**Q.** For O=C(O)C(O)c1ccccc1 (stereo not given), which maximum recommended daily dose (mmol/kg-bw/day) (TherapeuticCategory: urinary antiseptic) is on record?
**A.** Its maximum recommended daily dose (mmol/kg-bw/day) is 0.438.

**Q.** How did the maximum recommended daily dose (mmol/kg-bw/day) (TherapeuticCategory: andrenergic, nasal decongestant) turn out when CNC(C)CC1CCCCC1 (stereo not given) was run?
**A.** The maximum recommended daily dose (mmol/kg-bw/day) was 0.0161.

**Q.** With COc1ccc(Cc2nccc3cc(OC)c(OC)cc23)cc1OC as the compound, how does the maximum recommended daily dose (mmol/kg-bw/day) (TherapeuticCategory: smooth muscle relaxant, cerebral vasodilator) read?
**A.** The maximum recommended daily dose (mmol/kg-bw/day) was 0.0295.

**Q.** For CC#C[C@]1(O)CC[C@H]2[C@@H]3CCC4=CC(=O)CCC4=C3[C@@H](c3ccc(N(C)C)cc3)C[C@@]21C, which maximum recommended daily dose (mmol/kg-bw/day) (TherapeuticCategory: abortifacient) is on record?
**A.** The maximum recommended daily dose (mmol/kg-bw/day) was 0.0233.

**Q.** How did the maximum recommended daily dose (mmol/kg-bw/day) [2] turn out when CN(CCCN1c2ccccc2CCc2ccccc21)CC(=O)c1ccc(Cl)cc1 was run?
**A.** Its maximum recommended daily dose (mmol/kg-bw/day) is 0.00835.

**Q.** Which maximum recommended daily dose (mmol/kg-bw/day) (TherapeuticCategory: antimalarial) does the source give for CC1(C)N=C(N)N=C(N)N1c1ccc(Cl)cc1 here?
**A.** Its maximum recommended daily dose (mmol/kg-bw/day) is 0.00132.

**Q.** With CO[C@H]1C[C@@H]2CC[C@@H](C)[C@@](O)(O2)C(=O)C(=O)N2CCCC[C@H]2C(=O)O[C@H]([C@H](C)C[C@@H]2CC[C@@H](O)[C@H](OC)C2)CC(=O)[C@H](C)/C=C(\C)[C@@H](O)[C@@H](OC)C(=O)[C@H](C)C[C@H](C)/C=C/C=C/C=C/1C as the compound, how does the maximum recommended daily dose (mmol/kg-bw/day) (TherapeuticCategory: immunosuppressant) read?
**A.** The maximum recommended daily dose (mmol/kg-bw/day) was 0.000148.

**Q.** Which maximum recommended daily dose (mmol/kg-bw/day) [3] does the source give for CCN(CC)CCCN(c1ccccc1)C1Cc2ccccc2C1 here?
**A.** The maximum recommended daily dose (mmol/kg-bw/day) was 0.0155.

**Q.** With CCCN(CCC)S(=O)(=O)c1ccc(C(=O)O)cc1 as the compound, how does the maximum recommended daily dose (mmol/kg-bw/day) (TherapeuticCategory: uricosuric) read?
**A.** The maximum recommended daily dose (mmol/kg-bw/day) was 0.0585.

**Q.** For CC(=O)OCC1=C(C(=O)O)N2C(=O)[C@@H](NC(=O)CSc3ccncc3)[C@H]2SC1, which maximum recommended daily dose (mmol/kg-bw/day) [1] is on record?
**A.** The maximum recommended daily dose (mmol/kg-bw/day) was 0.236.

**Q.** How did the maximum recommended daily dose (mmol/kg-bw/day) (TherapeuticCategory: antifungal) turn out when Nc1[nH]c(=O)ncc1F was run?
**A.** Its maximum recommended daily dose (mmol/kg-bw/day) is 1.16.

**Q.** How did the maximum recommended daily dose (mmol/kg-bw/day) [3] turn out when c1ccc(C2(c3ccccc3)CC2C2=NCCN2)cc1 (stereo not given) was run?
**A.** Its maximum recommended daily dose (mmol/kg-bw/day) is 0.0248.

**Q.** With Cc1ccc(C)c(OCCCC(C)(C)C(=O)O)c1 as the compound, how does the maximum recommended daily dose (mmol/kg-bw/day) (TherapeuticCategory: antihyperlipoproteinemic) read?
**A.** Its maximum recommended daily dose (mmol/kg-bw/day) is 0.0799.

**Q.** With COc1ccc2c3c1O[C@H]1[C@@H](O)C=C[C@H]4[C@@H](C2)N(C)CC[C@@]341 as the compound, how does the maximum recommended daily dose (mmol/kg-bw/day) (TherapeuticCategory: narcotic analgesic, antitussive) read?
**A.** Its maximum recommended daily dose (mmol/kg-bw/day) is 0.02.

**Q.** For OC(c1ccccc1)(c1ccccc1)C1CCCCN1 (stereo not given), which maximum recommended daily dose (mmol/kg-bw/day) (TherapeuticCategory: CNS stimulant) is on record?
**A.** Its maximum recommended daily dose (mmol/kg-bw/day) is 0.000374.

**Q.** Which maximum recommended daily dose (mmol/kg-bw/day) (TherapeuticCategory: peripheral vasodilator) does the source give for O=C(OC[C@H]1O[C@](O)(COC(=O)c2cccnc2)[C@@H](OC(=O)c2cccnc2)[C@@H]1OC(=O)c1cccnc1)c1cccnc1 here?
**A.** The maximum recommended daily dose (mmol/kg-bw/day) was 0.111.

**Q.** Which maximum recommended daily dose (mmol/kg-bw/day) [1] does the source give for O=C(O)[C@H]1/C(=C/CO)O[C@@H]2CC(=O)N21 here?
**A.** The maximum recommended daily dose (mmol/kg-bw/day) was 0.0314.

**Q.** CC(=O)[C@H]1CC[C@H]2[C@@H]3CC[C@H]4C[C@H](O)CC[C@]4(C)[C@H]3C(=O)C[C@]12C was tested. Which maximum recommended daily dose (mmol/kg-bw/day) (TherapeuticCategory: anesthetic) did it give?
**A.** Its maximum recommended daily dose (mmol/kg-bw/day) is 0.00203.

**Q.** How did the maximum recommended daily dose (mmol/kg-bw/day) [1] turn out when CC(C)N=c1cc2n(-c3ccc(Cl)cc3)c3ccccc3nc-2cc1Nc1ccc(Cl)cc1 was run?
**A.** The maximum recommended daily dose (mmol/kg-bw/day) was 0.00703.

**Q.** With Cc1ccc2c(-c3ccccc3)nc(=O)n(C(C)C)c2c1 as the compound, how does the maximum recommended daily dose (mmol/kg-bw/day) (TherapeuticCategory: anti inflammatory) read?
**A.** The maximum recommended daily dose (mmol/kg-bw/day) was 0.0719.

**Q.** COc1cccc(OC)c1C(=O)N[C@@H]1C(=O)N2[C@@H]1SC(C)(C)[C@@H]2C(=O)O was tested. Which maximum recommended daily dose (mmol/kg-bw/day) [1] did it give?
**A.** Its maximum recommended daily dose (mmol/kg-bw/day) is 0.526.

**Q.** Which maximum recommended daily dose (mmol/kg-bw/day) (TherapeuticCategory: antioxidant) does the source give for CC1=C(/C=C/C(C)=C/C=C/C(C)=C/C=C/C=C(C)/C=C/C=C(C)/C=C/C2=C(C)C(=O)CCC2(C)C)C(C)(C)CCC1=O here?
**A.** Its maximum recommended daily dose (mmol/kg-bw/day) is 0.0443.

**Q.** For CCN(CCO)CCCC(C)Nc1ccnc2cc(Cl)ccc12 (stereo not given), which maximum recommended daily dose (mmol/kg-bw/day) (TherapeuticCategory: antimalarial, antirheumatic, lupus erythematosus suppressant) is on record?
**A.** The maximum recommended daily dose (mmol/kg-bw/day) was 0.0298.

**Q.** For NS(=O)(=O)c1cc(C(=O)O)cc(N2CCCC2)c1Oc1ccccc1, which maximum recommended daily dose (mmol/kg-bw/day) (TherapeuticCategory: diuretic) is on record?
**A.** Its maximum recommended daily dose (mmol/kg-bw/day) is 0.000552.
